How the values were obtained:
[1] = Concentration of di-AZT-5',5'-P^1,P^2 -pyrophosphate and its metabolites in human plasma incubated with loaded erythrocytes; format: in vitro ADME; conditions: 37° C., autologous plasma, 10% hematocrit, released from loaded erythrocytes
Description: (§1) A two step procedure was used consisting of a first dialysis of the washed and packed erythrocytes (80% hematocrit) against 70 volumes of hemolysing buffer (5 mM Na2 HPO4 supplemented with 4 mM MgCl2, pH 7.2, 26 mOsm) for 35 minutes at 4° C. under gentle rotation. This step was followed by addition of 10-15 mM di-AZT-5',5'-P^1,P^2 -pyrcphosphate inside the dialysis bag and further dialysis for 15 minutes under the same conditions. Erythrocytes were then resealed by dialysing them for 40 minutes at 4° C. against phosphate-saline buffer, pH 7.4, supplemented with 10 mM glucose and adenosine, 310 mOsm. The loaded erythrocytes were then extensively washed with ice-cold aqueous NaCl (0.9% w/w) and incubated at 37° C. in autologous plasma at 10% hematocrit.
(§2) The concentration of the dinucleoside pyrophosphate and its metabolites in the plasma and red blood cells was determined at successive time intervals by using the following method.
At various times, 1 ml aliquots of the incubation mixture were withdrawn. After the separation of the erythrocytes from plasma, the two fractions were separately extracted. […]
(§3) 150 Microliters of the plasma fractions were treated with 50 microliters of 3.7 M PCA and 120 microliters of the supernatant were neutralized with 27 microliters of 3 M potassium carbonate and centrifuged. […] The solvent program was a linear gradient starting at 100% of buffer A (0.1 M KH2 PO4 with 5 mM tert-butylammonium hydroxide (TBA), pH 4.9) and increasing up to 100% buffer B (0.1 M KH2 PO4 with 5 mM TBA, in 40% (v/v) methanol in water, pH 4.9) in 30 minutes; 100% buffer B was maintained up to 50 minutes. The flow rate was 0.4 ml/min and the eluted compounds were monitored with a spectrophotometric detector set at 265 nm.

[2] = Concentration of di-AZT-5',5'-P^1,P^2 -pyrophosphate and its metabolites in loaded human red blood cells; format: in vitro ADME; conditions: 37° C., autologous plasma; for Concentration into human red blood cells: 10% hematocrit, erythrocytes loaded with di-AZT-pyrophosphate
Description: as §1, §2
At various times, 1 ml aliquots of the incubation mixture were withdrawn. After the separation of the erythrocytes from plasma, the two fractions were separately extracted.
100 Microliters of packed red blood cells (RBC) were added to 100 microliters of water, then 68 microliters of 3.7 M perchloric acid (PCA) were added under vigorous shaking. The sample was centrifuged and 140 microliters of the supernatant were neutralized with 30 microliters of 3 M potassium carbonate. The sample was then centrifuged to remove the formed precipitate.
as §3

[3] = 50% cytotoxic concentration in MT-4 cells; format: cell-based; conditions: human
From the text: (§4) To confirm the anti-HIV activity of some dinucleoside-5',5'-P^1,P^2-pyrophosphates representative of this invention, invitro tests have been carried out on a HTLV-1 transformed cell line, MT-4, which is highly susceptible to and permissive for HIV infection. The inhibition of the HIV-induced cytopathic effect was used as the end point. The procedure of this test is essentially that described by R. Pauwels et al. "Rapid and automated tetrazolium-based calorimetric assay for the detection of anti-HIV compounds". Journal of Virological Methods, 20, (1988), 309-321.
(§5) Thymine-3'-azido-2',3'-dideoxy-D-riboside (AZT) was taken as control compound.

[4] = test system: HIV; assay: Anti-HIV in vitro activity: inhibition of the HIV-induced cytopathic effect in MT-4 cells; format: cell-based; conditions: Human immunodeficiency virus 1, MT4, read-out: 50% effective concentration (IC50)
From the text: as §4, §5

[5] = De-phosphorylation rate of encapsulated pro-drug; format: in vitro ADME; conditions: pro-drug for encapsulation into erythrocytes

| SMILES | Concentration in human plasma ([1]; 0 h) [µM] | Concentration in human plasma ([1]; 2 h) [µM] | Concentration in human plasma ([1]; 6 h) [µM] | Concentration in human plasma ([1]; 24 h) [µM] | Concentration into human red blood cells ([2]; 6 h) [µM] | Concentration into human red blood cells ([2]; 24 h) [µM] | CC50 [3] [nM] | IC50 [4] [nM] | Concentration into human red blood cells ([2]; 0 h) [µM] | Concentration into human red blood cells ([2]; 2 h) [µM] | Release from the erythrocytes ([2]; human red blood cells) | De-phosphorylation rate with respect to the respective monophosphate [5] |
| --- | --- | --- | --- | --- | --- | --- | --- | --- | --- | --- | --- | --- |
| Cc1cn([C@H]2C[C@H](N=[N+]=[N-])[C@@H](CO)O2)c(=O)[nH]c1=O [AZT, thymine-3'-azido-2',3'-dideoxy-D-riboside, reference compound] | 4.6 | 14.42 | 62.43 | 355.78 | 600 | 100 | 70000 | 28 |  |  |  |  |
| Cc1cn([C@H]2C[C@H](N=[N+]=[N-])[C@@H](COP(=O)(O)O)O2)c(=O)[nH]c1=O [AZT-monophosphate, thymine-3'-azido-2',3'-dideoxy-D-riboside-5'-monophosphate] | 21.94 | 28.21 | 24.68 | 67.11 | 650 | 930 |  |  | 40 | 90 |  |  |
| Cc1cn([C@H]2C[C@H](N=[N+]=[N-])[C@@H](COP(=O)(O)OP(=O)(O)OC[C@H]3O[C@@H](n4cc(C)c(=O)[nH]c4=O)C[C@@H]3N=[N+]=[N-])O2)c(=O)[nH]c1=O [Compound 1, di-(thymine-3'-azido-2',3'-dideoxy-D-riboside)-5',5'-P^1,P^2-pyrophosphate] | 4.49 | 3.75 | 5.27 | 5.34 | 2900 | 1800 | > 100000 | 31 | 3900 | 4100 | released from the erythrocytes at a very low rate |  |
| O=c1[nH]c(=O)n([C@H]2C[C@H](O)[C@@H](COP(=O)(O)OP(=O)(O)OC[C@H]3O[C@@H](n4cc(F)c(=O)[nH]c4=O)C[C@@H]3O)O2)cc1F [Example 6, di-(5-fluorouracil-2'-deoxy-D-riboside)-5',5'-P^1,P^2-pyrophosphate] |  |  |  |  |  |  |  |  |  |  |  | lower de-phosphorylation rate with respect to the respective monophosphate |
